Each structure is given as a SMILES string.

The results in this text go back to patent US7279476B2, “Pyrazole-derived kinase inhibitors and uses thereof” (Vertex Pharmaceuticals Incorporated, priority 2001, dated 2007).

In one assay the target is activated ERK2 (Homo sapiens, UniProt P28482). The assay can be described thus: ERK2 inhibition spectrophotometric coupled-enzyme assay. It is filed as biochemical. To be noted: 10 nM activated ERK2, 65 μM ATP, 30° C., pH 7.5; read-out: ERK2 Inhibitory Activity (Ki class). As to the method:
Compounds are assayed for the inhibition of ERK2 by a spectrophotometric coupled-enzyme assay (Fox et al (1998) Protein Sci 7, 2249). In this assay, a fixed concentration of activated ERK2 (10 nM) is incubated with various concentrations of the compound in DMSO (2.5%) for 10 min. at 30° C. in 0.1 M HEPES buffer, pH 7.5, containing 10 mM MgCl2, 2.5 mM phosphoenolpyruvate, 200 μM NADH, 150 μg/mL pyruvate kinase, 50 μg/mL lactate dehydrogenase, and 200 μM erktide peptide. The reaction is initiated by the addition of 65 μM ATP. The rate of decrease of absorbance at 340 nm is monitored, which indicates the extent of uninhibited enzyme present in the assay. The IC50 is evaluated from the rate data as a function of inhibitor concentration.
The compound numbers correspond to the compound numbers in Tables 1 and 2.

Assay [1] relates to Colon cancer cells (HT-29 cell line). In words: ERK inhibition cell proliferation assay (3H-thymidine uptake). It is filed as cell-based. To be noted: Homo sapiens, HT-29 cells, 3 days incubation. As to the method:
Compounds may be assayed for the inhibition of ERK2 by a cell proliferation assay. In this assay, a complete media is prepared by adding 10% fetal bovine serum and penicillin/streptomycin solution to RPMI 1640 medium (JRH Biosciences). Colon cancer cells (HT-29 cell line) are added to each of 84 wells of a 96 well plate at a seeding density of 10,000 cells/well/150 μL. The cells are allowed to attach to the plate by incubating at 37° C. for 2 hours. A solution of test compound is prepared in complete media by serial dilution to obtain the following concentrations: 20 μM, 6.7 μM, 2.2 μM, 0.74 μM, 0.25 μM, and 0.08 μM. The test compound solution (50 μL) is added to each of 72 cell-containing wells. To the 12 remaining cell-containing wells, only complete media (200 μL) is added to form a control group in order to measure maximal proliferation. To the remaining 12 empty wells, complete media is added to form a vehicle control group in order to measure background. The plates are incubated at 37° C. for 3 days. A stock solution of ^3H-thymidine (1 mCi/mL, New England Nuclear, Boston, Mass.) is diluted to 20 μCi/mL in RPMI medium then 20 μL of this solution is added to each well. The plates are further incubated at 37° C. for 8 hours then harvested and analyzed for ^3H-thymidine uptake using a liquid scintillation counter.

Another assay deals with AKT. In words: AKT inhibition standard coupled enzyme assay. It is filed as biochemical. To be noted: screened at 30 μM compound, 45 nM AKT, 170 μM ATP; compounds with greater than 50% inhibition titrated. As to the method:
Compounds were screened for their ability to inhibit AKT using a standard coupled enzyme assay (Fox et al., Protein Sci., (1998) 7, 2249). Assays were carried out in a mixture of 100 mM HEPES 7.5, 10 mM MgCl2, 25 mM NaCl, 1 mM DTT and 1.5% DMSO. Final substrate concentrations in the assay were 170 μM ATP (Sigma Chemicals) and 200 μM peptide (RPRAATF, American Peptide, Sunnyvale, Calif.). Assays were carried out at 30° C. and 45 nM AKT. Final concentrations of the components of the coupled enzyme system were 2.5 mM phosphoenolpyruvate, 300 μM NADH, 30 μg/ML pyruvate kinase and 10 μg/ml lactate dehydrogenase.
An assay stock buffer solution was prepared containing all of the reagents listed above, with the exception of AKT, DTT, and the test compound of interest. 56 μl of the stock solution was placed in a 384 well plate followed by addition of 1 μl of 2 mM DMSO stock containing the test compound (final compound concentration 30 μM). The plate was preincubated for about 10 minutes at 30° C. and the reaction initiated by addition of 10 μl of enzyme (final concentration 45 nM) and 1 mM DTT. Rates of reaction were obtained using a BioRad Ultramark plate reader (Hercules, Calif.) over a 5 minute read time at 30° C.

activated ERK2, sequence (P28482 whole entry): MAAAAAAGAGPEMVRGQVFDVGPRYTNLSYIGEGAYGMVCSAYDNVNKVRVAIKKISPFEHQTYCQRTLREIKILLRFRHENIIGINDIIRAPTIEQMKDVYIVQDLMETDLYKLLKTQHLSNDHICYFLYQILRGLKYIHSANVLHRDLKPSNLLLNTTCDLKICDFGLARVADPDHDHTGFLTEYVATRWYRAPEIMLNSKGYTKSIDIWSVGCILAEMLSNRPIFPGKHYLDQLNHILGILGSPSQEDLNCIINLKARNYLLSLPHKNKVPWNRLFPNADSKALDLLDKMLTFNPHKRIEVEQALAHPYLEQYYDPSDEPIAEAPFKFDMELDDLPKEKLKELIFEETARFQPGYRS

As usually defined, the Ki is a measure of affinity in units of concentration, obtained from inhibition or displacement. In the case of `CC(=O)N1C[C@H](O)C[C@H]1C(=O)NCc1ccc(-c2c[nH]nc2-c2c[nH]c(C(=O)N[C@H](CO)c3ccc(F)c(Cl)c3)c2)cc1Cl` (stereo in doubt) [II-2, 4-[4-(4-{[(1-Acetyl-4-hydroxy-pyrrolidine-2-carbonyl)-amino]-methyl}-3-chloro-phenyl)-1H-pyrazol-3-yl]-1H-pyrrole-2-carboxylic acid [1-(3-chloro-4-fluoro-phenyl)-2-hydroxy-ethyl]-amide], the Ki at activated ERK2 was < 1 µM. Broadly, the IC50 is the midpoint of a concentration-inhibition curve. As to `O=C(N[C@H](CO)c1ccccc1)c1cc(-c2[nH]ncc2-c2ccc(C(=O)N3CCOCC3)c(Cl)c2)c[nH]1` [II-1], the Ki on activated ERK2 was < 1 µM. Further, the IC50 in assay [1] is < 10 µM. Turning to `CC(=O)N1CCC[C@H]1C(=O)NCc1ccc(-c2cn[nH]c2-c2c[nH]c(C(=O)NC(CO)c3ccc(F)c(Cl)c3)c2)cc1Cl` (some centres unmarked) [II-3], on activated ERK2, the Ki is < 1 µM.

With `CC(=O)N1CCC[C@@H]1C(=O)NCc1ccc(-c2cn[nH]c2-c2c[nH]c(C(=O)NC(CO)c3ccc(F)c(Cl)c3)c2)cc1Cl` (some centres unmarked) [II-4], the Ki on activated ERK2 was < 1 µM. The same measure, in the same setting: the value for `O=C(CCCCCNc1ccc([N+](=O)[O-])c2nonc12)NCc1ccc(-c2cn[nH]c2-c2c[nH]c(C(=O)N[C@H](CO)c3ccc(F)c(Cl)c3)c2)cc1Cl` [II-5] was < 1 µM.

In the case of `O=C(N[C@H](CO)c1ccc(F)c(Cl)c1)c1cc(-c2n[nH]cc2-c2ccc(CN3CCOCC3)c(Cl)c2)c[nH]1` [II-6, 4-[4-(3-Chloro-4-morpholin-4-ylmethyl-phenyl)-1H-pyrazol-3-yl]-1H-pyrrole-2-carboxylic acid [1-(3-chloro-4-fluoro-phenyl)-2-hydroxy-ethyl]-amide], the Ki at activated ERK2 was < 1 µM. The IC50 in assay [1] is < 10 µM. Further, in the assay on AKT, the “inhibit AKT” value is on record as “inhibit AKT”. Regarding `O=C(NCc1ccc(-c2cn[nH]c2-c2c[nH]c(C(=O)N[C@H](CO)c3ccc(F)c(Cl)c3)c2)cc1Cl)O[C@H]1CCOC1` [II-7], on activated ERK2, the Ki was < 1 µM. Regarding `O=C(N[C@H](CO)c1ccc(F)c(Cl)c1)c1cc(-c2n[nH]cc2-c2ccc(CNCc3cc[n+]([O-])cc3)c(Cl)c2)c[nH]1` [II-8], on activated ERK2, the Ki is < 1 µM. In the assay on AKT, the “inhibit AKT” value is “inhibit AKT”.

With `O=C(N[C@H](CO)c1ccc(F)c(Cl)c1)c1cc(-c2n[nH]cc2-c2ccc(CN(Cc3cc[n+]([O-])cc3)Cc3cc[n+](O)cc3)c(Cl)c2)c[nH]1` [II-9, 4-[4-(4-{[Bis-(1-oxy-pyridin-4-ylmethyl)-amino]-methyl}-3-chloro-phenyl)-1H-pyrazol-3-yl]-1H-pyrrole-2-carboxylic acid [1-(3-chloro-4-fluoro-phenyl)-2-hydroxy-ethyl]-amide], the inhibition constant Ki on activated ERK2 is < 1 µM. Regarding `O=C(NCc1ccccc1)c1cc(-c2[nH]ncc2-c2cccc(CN3CCOCC3)c2)c[nH]1` [II-10], the Ki on activated ERK2 is > 5 µM.
